Tests used:
Phakopsora pachyrhizi = assay: Fungicidal activity against Phakopsora pachyrhizi / soybean / leaf disc preventative (Asian soybean rust); type: in vivo; conditions: foliar, 200 ppm in the applied formulation, soybean leaf disks, preventative (inoculated one day after application), assessed 12 to 14 days after application, read-out: disease control compared to untreated control leaf disks
Procedure, shortened: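 Soybean leaf discs on water agar sprayed with formulated compound diluted in water; spore suspension sprayed on lower leaf surface one day later. Incubated 24-36 h dark at 20° C, 75% rh, then 20° C, 12 h light/day, 75% rh. Percent disease control versus untreated scored 12 to 14 days after application.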

Uromyces viciae-fabae = assay: Fungicidal activity against Uromyces viciae-fabae / field bean / leaf disc preventative (faba-bean rust); type: in vivo; conditions: foliar, 288 h, 100 ppm in the applied formulation, field bean leaf discs, preventative (inoculated two hours after application), assessed 12 days after application, read-out: disease control compared to untreated control leaf discs
Description: Leaf disks or leaf segments of various plant species are cut from plants grown in a greenhouse. The cut leaf disks or segments are placed in multiwell plates (24-well format) onto water agar. The leaf disks are sprayed with a test solution before (preventative) or after (curative) inoculation. Compounds to be tested are prepared as DMSO solutions (max. 10 mg/ml) which are diluted to the appropriate concentration with 0.025% Tween20 just before spraying. The inoculated leaf disks or segments are incubated under defined conditions (temperature, relative humidity, light, etc.) according to the respective test system. A single evaluation of disease level is carried out 3 to 14 days after inoculation, depending on the pathosystem. Percent disease control relative to the untreated check leaf disks or segments is then calculated. General Examples of Liquid Culture Tests in Well Plates:
Example 5: Fungicidal Activity Against Uromyces viciae-fabae/Field Bean/Leaf Disc Preventative (Faba-Bean Rust)
Field bean leaf discs are placed on water agar in multiwell plates (96-well format) and 10 μl of the formulated test compound diluted in acetone and a spreader pipetted onto the leaf disc. Two hours after application leaf discs are inoculated by spraying a spore suspension on the lower leaf surface. The leaf discs are incubated in a climate cabinet at 22° C. with 18 hour day and 70% relative humidity. The activity of a compound is assessed as percent disease control compared to untreated when an appropriate level of disease damage appears in untreated check leaf disks (12 days after application).
The following compounds at 100 ppm in the applied formulation give at least 80% disease control in this test when compared to untreated control leaf discs under the same conditions, which show extensive disease development.

[1] = tested on: Puccinia recondita f. sp. tritici; assay: Fungicidal activity against Puccinia recondita f. sp. tritici / wheat / leaf disc curative (brown rust); type: in vivo; conditions: foliar, 200 ppm in the applied formulation, wheat leaf segments cv. Kanzler, curative (applied 1 day after inoculation), assessed 6 to 8 days after application, read-out: disease control compared to untreated control leaf disks
Procedure, shortened: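 Wheat cv. Kanzler leaf segments on agar, spore-inoculated, held dark at 19° C./75% RH; formulated compound in water sprayed 1 day post-inoculation (curative). Incubated 19° C., 75% RH, 12 h light/12 h dark; percent disease control vs untreated scored 6 to 8 days after application.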

[2] = tested on: Puccinia recondita f. sp. tritici; assay: Fungicidal activity against Puccinia recondita f. sp. tritici / wheat / leaf disc preventative (brown rust); type: in vivo; conditions: foliar, 200 ppm in the applied formulation, wheat leaf segments cv. Kanzler, preventative (inoculated 1 day after application), assessed 7 to 9 days after application, read-out: disease control compared to untreated control leaf disks
Procedure, shortened: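 Wheat cv. Kanzler leaf segments on agar sprayed with formulated compound diluted in water, inoculated with P. recondita spores 1 day later. Incubated at 19C, 75% rh, 12 h light/12 h dark; scored 7 to 9 days after application as percent disease control versus untreated segments. Test rate 200 ppm.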

[3] = tested on: Glomerella laqenarium (Colletotrichum lagenarium); assay: Fungicidal activity against Glomerella lagenarium (Colletotrichum lagenarium) liquid culture / cucumber / preventative (anthracnose); type: cell-based; conditions: Colletotrichum orbiculare; 20 ppm in the applied formulation; liquid culture in PDB, 24° C., 3 to 4 days after application; read-out: disease control compared to untreated control (inhibition of growth measured photometrically)
Procedure, shortened: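 Cryostored conidia mixed into potato dextrose broth and added to test compound (from DMSO solution) in microtiter plates. Incubated at 24 °C; growth inhibition read photometrically 3 to 4 days after application, as percent activity versus untreated check.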

CC1CCCC(NC(=O)c2ccc(-c3noc(C(F)(F)F)n3)cc2)C1 (stereo not drawn) [Compound 2a.2, N-(3-methylcyclohexyl)-4-[5-(trifluoromethyl)-1,2,4-oxadiazol-3-yl]benzamide]
≥ 80%: pest or weed control at 200 ppm (Phakopsora pachyrhizi) | pest or weed control at 100 ppm (Uromyces viciae-fabae)

O=C(NC1CCCCCCC1)c1ccc(-c2noc(C(F)(F)F)n2)cc1 [Compound 2a.5, N-cyclooctyl-4-[5-(trifluoromethyl)-1,2,4-oxadiazol-3-yl]benzamide]
≥ 80%: pest or weed control at 200 ppm (Phakopsora pachyrhizi) | pest or weed control at 100 ppm (Uromyces viciae-fabae)

CC(C)NC(=O)c1ccc(-c2noc(C(F)(F)F)n2)cc1F [Compound 3b.27, 2-fluoro-N-isopropyl-4-[5-(trifluoromethyl)-1,2,4-oxadiazol-3-yl]benzamide]
≥ 80%: pest or weed control at 200 ppm (Phakopsora pachyrhizi) | pest or weed control at 200 ppm [1] | pest or weed control at 200 ppm [2] | inhibition at 20 ppm [3]

CC(C)(O)CNC(=O)c1ccc(-c2noc(C(F)(F)F)n2)cc1F [Compound 3b.29, 2-fluoro-N-(2-hydroxy-2-methyl-propyl)-4-[5-(trifluoromethyl)-1,2,4-oxadiazol-3-yl]benzamide]
≥ 80%: pest or weed control at 200 ppm (Phakopsora pachyrhizi) | pest or weed control at 200 ppm [1] | pest or weed control at 200 ppm [2] | inhibition at 20 ppm [3]

C=CCN(CC)C(=O)c1ccc(-c2noc(C(F)(F)F)n2)cc1F [Compound 3b.30, N-allyl-N-ethyl-2-fluoro-4-[5-(trifluoromethyl)-1,2,4-oxadiazol-3-yl]benzamide]
≥ 80%: pest or weed control at 200 ppm (Phakopsora pachyrhizi) | pest or weed control at 200 ppm [1] | pest or weed control at 200 ppm [2] | inhibition at 20 ppm [3]

CCN(CC)C(=O)c1ccc(-c2noc(C(F)(F)F)n2)cc1F [Compound 3b.32, N,N-diethyl-2-fluoro-4-[5-(trifluoromethyl)-1,2,4-oxadiazol-3-yl]benzamide]
≥ 80%: pest or weed control at 200 ppm (Phakopsora pachyrhizi) | pest or weed control at 200 ppm [1] | pest or weed control at 200 ppm [2] | inhibition at 20 ppm [3]

C=C(C)CN(CC)C(=O)c1ccc(-c2noc(C(F)(F)F)n2)cc1F [Compound 3b.33, N-ethyl-2-fluoro-N-(2-methylallyl)-4-[5-(trifluoromethyl)-1,2,4-oxadiazol-3-yl]benzamide]
≥ 80%: pest or weed control at 200 ppm (Phakopsora pachyrhizi) | pest or weed control at 200 ppm [1] | pest or weed control at 200 ppm [2] | inhibition at 20 ppm [3]

CCCN(C)C(=O)c1ccc(-c2noc(C(F)(F)F)n2)cc1F [Compound 3b.34, 2-fluoro-N-methyl-N-propyl-4-[5-(trifluoromethyl)-1,2,4-oxadiazol-3-yl]benzamide]
≥ 80%: pest or weed control at 200 ppm (Phakopsora pachyrhizi) | pest or weed control at 200 ppm [1] | pest or weed control at 200 ppm [2] | inhibition at 20 ppm [3]

CCN(C(=O)c1ccc(-c2noc(C(F)(F)F)n2)cc1F)C(C)C [Compound 3b.35, N-ethyl-2-fluoro-N-isopropyl-4-[5-(trifluoromethyl)-1,2,4-oxadiazol-3-yl]benzamide]
≥ 80%: pest or weed control at 200 ppm (Phakopsora pachyrhizi) | pest or weed control at 200 ppm [1] | pest or weed control at 200 ppm [2] | inhibition at 20 ppm [3]

CC(C)N(C)C(=O)c1ccc(-c2noc(C(F)(F)F)n2)cc1F [Compound 3b.36, 2-fluoro-N-isopropyl-N-methyl-4-[5-(trifluoromethyl)-1,2,4-oxadiazol-3-yl]benzamide]
≥ 80%: pest or weed control at 200 ppm (Phakopsora pachyrhizi) | pest or weed control at 200 ppm [1] | pest or weed control at 200 ppm [2] | inhibition at 20 ppm [3]

CN(C(=O)c1ccc(-c2noc(C(F)(F)F)n2)cc1F)C(C)(C)C [Compound 3b.37, N-tert-butyl-2-fluoro-N-methyl-4-[5-(trifluoromethyl)-1,2,4-oxadiazol-3-yl]benzamide]
≥ 80%: pest or weed control at 200 ppm (Phakopsora pachyrhizi) | pest or weed control at 200 ppm [1] | pest or weed control at 200 ppm [2] | inhibition at 20 ppm [3]

CCCCN(C)C(=O)c1ccc(-c2noc(C(F)(F)F)n2)cc1F [Compound 3b.38, N-butyl-2-fluoro-N-methyl-4-[5-(trifluoromethyl)-1,2,4-oxadiazol-3-yl]benzamide]
≥ 80%: pest or weed control at 200 ppm (Phakopsora pachyrhizi) | pest or weed control at 200 ppm [1] | pest or weed control at 200 ppm [2] | inhibition at 20 ppm [3]

CCOCCNC(=O)c1ccc(-c2noc(C(F)(F)F)n2)cc1F [Compound 3b.39, N-(2-ethoxyethyl)-2-fluoro-4-[5-(trifluoromethyl)-1,2,4-oxadiazol-3-yl]benzamide]
≥ 80%: pest or weed control at 200 ppm (Phakopsora pachyrhizi) | pest or weed control at 200 ppm [1] | pest or weed control at 200 ppm [2] | inhibition at 20 ppm [3]

COCC(C)NC(=O)c1ccc(-c2noc(C(F)(F)F)n2)cc1F (stereo not drawn) [Compound 3b.40, 2-fluoro-N-(2-methoxy-1-methyl-ethyl)-4-[5-(trifluoromethyl)-1,2,4-oxadiazol-3-yl]benzamide]
≥ 80%: pest or weed control at 200 ppm (Phakopsora pachyrhizi) | pest or weed control at 200 ppm [1] | pest or weed control at 200 ppm [2] | inhibition at 20 ppm [3]

CC(C)CCNC(=O)c1ccc(-c2noc(C(F)(F)F)n2)cc1F [Compound 3b.41, 2-fluoro-N-isopentyl-4-[5-(trifluoromethyl)-1,2,4-oxadiazol-3-yl]benzamide]
≥ 80%: pest or weed control at 200 ppm (Phakopsora pachyrhizi) | pest or weed control at 200 ppm [1] | pest or weed control at 200 ppm [2] | inhibition at 20 ppm [3]

CC(C)OCCNC(=O)c1ccc(-c2noc(C(F)(F)F)n2)cc1F [Compound 3b.43, 2-fluoro-N-(2-isopropoxyethyl)-4-[5-(trifluoromethyl)-1,2,4-oxadiazol-3-yl]benzamide]
≥ 80%: pest or weed control at 200 ppm (Phakopsora pachyrhizi) | pest or weed control at 200 ppm [1] | pest or weed control at 200 ppm [2] | inhibition at 20 ppm [3]

C#CCN(C)C(=O)c1ccc(-c2noc(C(F)(F)F)n2)cc1F [Compound 3b.44, 2-fluoro-N-methyl-N-prop-2-ynyl-4-[5-(trifluoromethyl)-1,2,4-oxadiazol-3-yl]benzamide]
≥ 80%: pest or weed control at 200 ppm (Phakopsora pachyrhizi) | pest or weed control at 200 ppm [1] | pest or weed control at 200 ppm [2] | inhibition at 20 ppm [3]

O=C(Nc1nc(Br)n[nH]1)c1ccc(-c2noc(C(F)(F)F)n2)cc1 [Compound 5a.6, N-(3-bromo-1H-1,2,4-triazol-5-yl)-4-[5-(trifluoromethyl)-1,2,4-oxadiazol-3-yl]benzamide]
≥ 80%: pest or weed control at 200 ppm (Phakopsora pachyrhizi) | pest or weed control at 200 ppm [1] | pest or weed control at 200 ppm [2] | inhibition at 20 ppm [3]

O=C(Nc1nccnn1)c1ccc(-c2noc(C(F)(F)F)n2)cc1 [Compound 5a.8, N-(1,2,4-triazin-3-yl)-4-[5-(trifluoromethyl)-1,2,4-oxadiazol-3-yl]benzamide]
≥ 80%: pest or weed control at 200 ppm (Phakopsora pachyrhizi) | pest or weed control at 200 ppm [1] | pest or weed control at 200 ppm [2] | inhibition at 20 ppm [3]

— US10959432B2, “Microbiocidal oxadiazole derivatives” (Syngenta Participations AG, priority 2016, dated 2021)
